Patent US9540400B2, “Compounds as diacylglycerol acyltransferase inhibitors” (GlaxoSmithKline Intellectual Property (No. 2) Limited, priority 2011, dated 2017)

What was measured:
[1] = biological target: T1, Human DGAT1 (Homo sapiens, UniProt O75907); test: hDGAT1 lipid extraction (LE) assay, inhibition of triacylglycerol product formation; assay type: biochemical; settings: human DGAT1 microsomes from Sf9 cells; radiolabelled tridecanoylglycerol extraction
T1 construct: made in house; host or cells: Sf9 insect cells (baculovirus); microsomes
T1 sequence (O75907 1-488): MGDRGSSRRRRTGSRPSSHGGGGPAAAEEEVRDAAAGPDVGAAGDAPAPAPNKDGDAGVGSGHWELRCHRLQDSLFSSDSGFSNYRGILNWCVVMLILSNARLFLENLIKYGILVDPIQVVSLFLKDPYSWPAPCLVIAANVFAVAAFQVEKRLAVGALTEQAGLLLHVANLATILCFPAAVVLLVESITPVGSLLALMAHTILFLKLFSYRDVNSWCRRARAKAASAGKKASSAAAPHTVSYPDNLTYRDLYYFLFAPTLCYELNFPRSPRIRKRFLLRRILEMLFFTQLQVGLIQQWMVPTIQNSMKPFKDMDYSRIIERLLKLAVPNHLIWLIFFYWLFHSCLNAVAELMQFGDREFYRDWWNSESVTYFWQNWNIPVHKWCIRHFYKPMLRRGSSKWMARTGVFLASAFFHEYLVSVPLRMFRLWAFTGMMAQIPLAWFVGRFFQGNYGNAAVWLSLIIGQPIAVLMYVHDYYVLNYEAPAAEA
Experimental: (§1) Human DGAT1 was expressed in Sf9 insect cells using a baculovirus expression system. Microsomes were prepared and used as enzyme for in vitro inhibition testing in either of two formats measuring production of coenzyme A or tridecanoylglycerol product, respectively. All steps were performed at 21-23° C. All data for DGAT1 inhibition by test compounds were collected under conditions where product formation was linear with reaction time.
For inhibition of triacylglycerol product formation, 11 uL reactions were run in white Polyplate-384 (PerkinElmer6007300) starting with a 30 minute pre-reaction incubation of 5 uL of 2.2× enzyme and 1 uL of 100% DMSO containing test compound or control compound, {4-[4-(4-amino-7,7-dimethyl-7H-pyrimido[4,5-b][1,4]oxazin-6-yl)phenyl]cyclohexyl}acetic acid. Some assays were performed with inclusion of didecanoylglycerol in the pre-reaction incubation of test compounds and enzyme. Reactions were initiated after 30 minute pre-reaction incubation via addition of 5 uL of 2.2× substrate. Final reaction conditions consisted of 50 mM HEPES pH 7.5, 2 mM MgCl2, 1 mM CHAPS, 25 uM didecanoylglycerol, 0.5 uM decanoyl-CoA, 0.3 nCi/uL [^14C]-decanoyl-CoA or 0.5 nCi/uL [^3H]-decanoyl-CoA, 0.05-4 ug/mL microsomal protein, and 1% DMSO. Following 60 minute reaction incubation, reactions were stopped with 40 uL of 45% isopropanol and 50 mM sodium carbonate in water and mixed. Extraction of tridecanoylglycerol product was accomplished via addition of 30 uL Microscint-E (Perkin Elmer) and 2 hours of incubation (sealed). Plates were read on a Microbeta Microplate reader. Inhibition was normalized to controls containing DMSO or 10 uM {4-[4-(4-amino-7,7-dimethyl-7H-pyrimido[4,5-b][1,4]oxazin-6-yl)phenyl]cyclohexyl}acetic acid. IC50s were fitted using GraphPad Prism to a sigmoidal dose response.

[2] = biological target: T1, Human DGAT1; test: hDGAT1 fluorescence (CPM) assay, inhibition of CoA product formation; assay type: biochemical; settings: human DGAT1 microsomes from Sf9 cells
Experimental: as §1
For inhibition of CoA product formation, test compounds were prepared in 100% DMSO, diluted 100-fold into assay buffer, and 10 uL added to 96-well half-area plates (Greiner 675076). An equal volume (10 uL) of 3× enzyme in buffer was added and the components incubated for 30 minutes pre-reaction incubation to allow enzyme and test compounds to attain binding equilibrium. […] Some assays were performed with inclusion of didecanoylglycerol in the pre-reaction incubation of test compound and enzyme. DGAT reactions (30 uL) were initiated upon addition of 10 uL of 3× substrate solution. Final reaction conditions consisted of 20 mM HEPES pH 7.5, 2 mM MgCl2, 1 mM CHAPS, 50 uM didecanoylglycerol, 3 uM decanoyl-CoA, 1 ug/mL microsomal protein, and 1% DMSO. Following a 60 minute reaction incubation, reactions were stopped and CoA product derivatized with 30 uL of buffer containing 10 uM {4-[4-(4-amino-7,7-dimethyl-7H-pyrimido[4,5-b][1,4]oxazin-6-yl)phenyl]cyclohexyl}acetic acid and 50 uM 7-diethylamino-3-(4′-maleimidylphenyl)-4-methylcoumarin (CPM). Fluorescence was read using Envision reader at Ex 405 nm/Em 480 nm about 30 minutes after addition of final solution. Inhibition was normalized to controls containing DMSO or 10 uM {4-[4-(4-amino-7,7-dimethyl-7H-pyrimido[4,5-b][1,4]oxazin-6-yl)phenyl]cyclohexyl}acetic acid. IC50s were fitted using GraphPad Prism to a sigmoidal dose response.

Molecule | IC50 [1] | IC50 [2]
Nc1ncnc2c1C(=O)N(c1ccc3c(ccn3-c3ccc(F)c(F)c3)c1)CCO2 [Example 74, 4-amino-6-[1-(3,4-difluorophenyl)-1H-indol-5-yl]-5H,6H,7H,8H-pyrimido[5,4-f][1,4]oxazepin-5-one] | 4.5 nM | –
CCCn1cc(C(C)(OC)C(F)(F)F)c2cc(N3CCOc4ncnc(N)c4C3=O)ccc21 (stereo not shown) [Example 64, 4-amino-6-[1-propyl-3-(1,1,1-trifluoro-2-methoxypropan-2-yl)-1H-indol-5-yl]-5H,6H,7H,8H-pyrimido[5,4-f][1,4]oxazepin-5-one] | 8.8 nM | –
Nc1ncnc2c1C(=O)N(c1ccc3nc[nH]c(=O)c3c1)CCO2 [Example 98, 4-Amino-6-(4-oxo-3,4-dihydroquinazolin-6-yl)-7,8-dihydropyrimido[5,4-f][1,4]oxazepin-5(6H)-one] | 623 nM | –
Nc1ncnc2c1C(=O)N(c1ccc3ncn(Cc4ccccc4)c(=O)c3c1)CCO2 [Example 97, 4-Amino-6-(3-benzyl-4-oxo-3,4-dihydroquinazolin-6-yl)-7,8-dihydropyrimido[5,4-f][1,4]oxazepin-5(6H)-one] | 201 nM | –
4-amino-6-(6-fluoro-1-phenyl-1H-indol-5-yl)-5H,6H,7H,8H-pyrimido[5,4-f][1,4]oxazepin-5-one [Example 96] | 7.3 nM | –
Nc1ncnc2c1C(=O)N(c1cnc3c(ccn3CC(F)F)c1)CCO2 [Example 33, 4-Amino-6-(1-(2,2-difluoroethyl)-1H-pyrrolo[2,3-b]pyridin-5-yl)-7,8-dihydropyrimido[5,4-f][1,4]oxazepin-5(6H)-one] | 23.3 nM | –
Nc1ncnc2c1C(=O)N(c1cnc3c(ccn3-c3ccccc3)c1)CCO2 [Example 72, 4-amino-6-{1-phenyl-1H-pyrrolo[2,3-b]pyridin-5-yl}-5H,6H,7H,8H-pyrimido[5,4-f][1,4]oxazepin-5-one] | 9.3 nM | –
CS(=O)(=O)n1ccc2cc(N3CCOc4ncnc(N)c4C3=O)ccc21 [Example 60, 4-amino-6-(1-methanesulfonyl-1H-indol-5-yl)-5H,6H,7H,8H-pyrimido[5,4-f][1,4]oxazepin-5-one] | 14.8 nM | –
Nc1ncnc2c1C(=O)N(c1cnc3c(ccn3-c3cccc(Cl)c3)c1)CCO2 [Example 68, 4-amino-6-[1-(3-chlorophenyl)-1H-pyrrolo[2,3-b]pyridin-5-yl]-5H,6H,7H,8H-pyrimido[5,4-f][1,4]oxazepin-5-one] | – | 2.8 nM

More lines, in order of falling IC50 [1], values ahead:

IC50 [1] | IC50 [2] | Molecule
3.9 nM | – | Nc1ncnc2c1C(=O)N(c1ccc3c(ccn3-c3ccccc3)c1)CCO2 [Example 65, 4-Amino-6-(1-phenyl-1H-indol-5-yl)-7,8-dihydropyrimido[5,4-f][1,4]oxazepin-5(6H)-one]
3.6 nM | – | Nc1ncnc2c1C(=O)N(c1ccc3c(ccn3-c3cccc(C(F)(F)F)c3)c1)CCO2 [Example 80, 4-amino-6-{1-[3-(trifluoromethyl)phenyl]-1H-indol-5-yl}-5H,6H,7H,8H-pyrimido[5,4-f][1,4]oxazepin-5-one]
2.3 nM | – | CCCn1cc(C(=O)C(F)(F)F)c2cc(N3CCOc4ncnc(N)c4C3=O)ccc21 [Example 63, 4-Amino-6-(1-propyl-3-(2,2,2-trifluoroacetyl)-1H-indol-5-yl)-7,8-dihydropyrimido[5,4-f][1,4]oxazepin-5(6H)-one]
2.1 nM | – | Nc1ncnc2c1C(=O)N(c1cnc3c(ccn3-c3cccc(C(F)(F)F)c3)c1)CCO2 [Example 81, 4-amino-6-{1-[3-(trifluoromethyl)phenyl]-1H-pyrrolo[2,3-b]pyridin-5-yl}-5H,6H,7H,8H-pyrimido[5,4-f][1,4]oxazepin-5-one]
